Test results from paper PMC7906020, “Trp-Containing Antibacterial Peptides Impair Quorum Sensing and Biofilm Development in Multidrug-Resistant Pseudomonas aeruginosa and Exhibit Synergistic Effects With Antibiotics” (Frontiers in Microbiology, 2021).

Tests used:
MRPA0108 biofilms = assay: Confocal laser scanning microscopy of biofilms (LIVE/DEAD staining); type: cell-based, Pseudomonas aeruginosa; conditions: erythromycin positive control, concentration not given; 24 h; control 8.7%
Description: Biofilms of MRPA0108 were visualized by confocal microscopy. Mid-log growth-phase bacteria were diluted to 1 × 10^7 CFU/ml. […] LB liquid medium and erythromycin were used as negative and positive controls, respectively. After incubation, the supernatant was removed, and the slides were washed and stained in a dark environment for 30 min using a LIVE/DEAD BacLight^TM Bacterial Viability Kit (Invitrogen, Life Technologies, Shanghai, China). The slides were washed three times and imaged with a confocal laser scanning microscope (LSM 710, Carl Zeiss, Germany) with excitation/emission wavelengths of 480/500 and 490/635 nm for SYTO9 and propidium iodide (PI), respectively. SYTO9 was used to indicate live bacteria, and PI was used to mark dead bacteria.

[1] = tested on: MRPA0108 swarming motility; assay: Swarming motility assay; type: cell-based, Pseudomonas aeruginosa; conditions: erythromycin positive control, concentration not given; 24 h, 37°C; vs control
Description: The swarming motility of MRPA0108 was assessed as described by [O’May and Tufenkji (2011)], with slight modifications. Briefly, swarming agar medium (1% tryptone, 0.5% NaCl, and 0.5% agar) was prepared in the presence or absence of peptide at a final concentration of 1/4 × MIC. MRPA0108 cells from an overnight culture grown on LB agar plates were placed directly on the agar surface (center) with a sterile toothpick so that the motility within the semisolid agar could be evaluated. After 24 h of incubation at 37°C, the diameters of swarming motility were observed and measured. LB liquid medium and erythromycin were used as negative control and positive controls, respectively. All experiments were repeated three times.

## CC[C@H]1OC(=O)[C@H](C)[C@@H](O[C@H]2C[C@@](C)(OC)[C@@H](O)[C@H](C)O2)[C@H](C)[C@@H](O[C@@H]2O[C@H](C)C[C@H](N(C)C)[C@H]2O)[C@](C)(O)C[C@@H](C)C(=O)[C@H](C)[C@@H](O)[C@]1(C)O [erythromycin, reference compound]
MRPA0108 biofilms
  percentage of dead/live cells in biofilm: 68.9%
[1]
  reduction in swarming motility: 85%
